Results taken from patent US5457182A (Merck & Co., Inc., priority 1994, dated 1995).
“Also recorded” adds a separate entry of the source.

Experiments:
[1] = literature; cited from earlier work
FKBP12.6 [2] = target: T1, FKBP12.6 (Bos taurus, UniProt P68107); test: Inhibition of PPIase activity of FKBP12.6; assay type: biochemical, bovine (calf brain)
T1 construct: The FKBP12.6 protein has been isolated and purified from calf brain; from tissue; host or cells: calf brain cytosol
Experimental: (§1) PPIase assays were performed as described (Fischer, G., et al., Nature, 337,476-478 (1989)) with the following changes: the peptide substrate used was N-succinyl-Ala-Leu-Pro-Phe-p-nitroanilide (BACHEM, California) at a final concentration of 72 μM and chymotrypsin (Sigma) was present in the assay at a concentration of 6 μM. The total reaction volume was 1.5 ml. The release of p-nitroanilide by chymotrypsin was measured by following the increase in absorbance at 405 nm on a Beckman DU68 spectrophotometer. After an initial rapid rise in absorbance due to hydrolysis of the trans peptide, the slow secondary increase in absorbance which reflects the cis-to-trans conversion of the peptide by the PPIase was measured at 3 sec intervals out to 1.5 min. The data were fitted to a simple first-order rate equation and the first-order rate constant, k (s^-1), calculated.

FKBP12 = FKBP12 (Homo sapiens, UniProt P62942); test: [3H]dihydroFK-506 direct binding, FKBP12; conditions: unit inferred
Experimental: (§2) The basic LH-20 binding assay was performed as described by Handschumacher,R., et al., Science, 226, 544-547 (1984) with the modifications noted in Siekierka, J., et al., Nature, 341, 755-757 (1989).

FKBP12.6 [3] = target: T1, FKBP12.6; test: [3H]dihydroFK-506 direct binding (LH-20 assay), Scatchard, FKBP12.6; parameters: species or system bovine (calf brain); conditions: direct binding data, Scatchard format
Experimental: as §2

JURKAT cells = test: IL-2 secretion in JURKAT cells stimulated with PMA and ionomycin; assay type: cell-based, human
Heat stability = assay type: physicochemical
calcineurin [4] = test: Calcineurin phosphatase assay; assay type: biochemical, bovine
Experimental: For a side-by-side comparison, FKBP12 was also tested for its ability to inhibit calcineurin in the presence of drug.
The calcineurin phosphatase assay is a modified version of previous assays (Liu, J., et al., Cell, 66, 807-815 (1991); Manalan, A., et al., Proc. Natl. Acad. Sci. U.S.A., 80, 4291-4295 (1983)). Reaction mixtures ([…] contained: 40 mM Tris (pH 8), 100 mM NaCl, 6 mM Mg(OAc)2, 0.1 mM CaCl2, 0.1 mg/ml BSA, 0.5 mM dithiothreitol, 190 nM bovine brain calmodulin (Sigma), 3 nM bovine brain calcineurin (Sigma), and 40 μM [^33 P]RII peptide (Peptides International) (600 cpm/pmole). Reaction mixtures were pre-incubated for 30 min at 30° C. prior to addition of the labeled peptide. The reaction was initiated by addition of the peptide and the dephosphorylation reaction was allowed to proceed for 10 min at 30° C. The reaction was terminated by the addition of 0.5 ml of 5% trichloroacetic acid containing 100 mM sodium phosphate (stop buffer) and applied to a 0.5 ml Dowex 50W-X8, H^+ column. Free [^33 P]phosphate was eluted from the column with 0.5 ml of stop buffer followed by 0.5 ml of water.

[5] = FK-506 specific binding activity of FKBP12.6 preparations (LH-20 assay); conditions: Step II. CM-650M
[6] = Peptidyl-prolyl cis-trans isomerase (PPIase) activity; assay type: biochemical
Experimental: as §1

[7] = FK-506 specific binding activity of FKBP12.6 preparations (LH-20 assay)
Experimental: However, FKBP12.6 is separated completely from authentic FKBP12 in Step II by chromatography on the CM-450M column. FKBP12.6 remains bound to the CM column while FKBP12 flows through during loading and washing. FKBP12.6 elutes from the column between 100 and 200 mM NaCl and Westerns of the gradient fractions using the anti-C-terminal peptide antibody confirm that there is no trace of FKBP12 present in the FKBP12.6 fractions. Because of the presence of FKBP12 in the S200, the recovery of FKBP12.6 may only be calculated from the CM-450M step forward using the standard LH-20 binding assay (Handschumacher, R., et al., Science. 226, 544-547 (1984)).
Starting with approximately 60 grams of protein in the crude cytosolic brain extract, a typical yield after purification is about 50 μg of homogeneous FKBP12.6 (see Table I). […] FKBP12.6 was eluted from the resin with 4M guanidine-HCl and renatured by dialysis. […] This calculates to a 3,271-fold purification from the CM-450M step. Because the CM-450M step removes 94% of the protein from the crude extract, the overall s purification from the S200 is actually much greater. In calf brain cytosol then, FKBP12.6 is clearly much less abundant than FKBP12 is in calf thymus which was purified from that tissue 337-fold to homogeneity with almost the identical recovery (Siekierka, J., et al., Nature, 341, 755-757 (1989)). […] A second explanation for the lower than expected binding is that the LH-20 assay used to estimate binding is not an equilibrium binding assay and ligand off-rates will result in lower calculated specific binding activities. A third explanation is that all of the FKBP12.6 may not be […] properly and the […] protein may not bind effectively.
as §2

calcineurin [8] = test: FKBP.FK-506.CaN complex-formation assay (size-exclusion column, Western analysis); assay type: binding, bovine; conditions: Ca^2+
Experimental: In the modified assay, samples were assayed by Western analysis using the anti-C-terminal peptide antibody in order to identify FKBP12 and FKBP12.6 in various chromatographic fractions.
In the first experiment, FKBP12 and FKBP12.6 were partially purified by preparative HPLC gel filtration chromatography on a Bio-Sil TSK-125 column. These partially purified FKBPs (containing both FKBP12 and FKBP12.6) are devoid of CaN which separates completely from them on this column. FKBP12 and FKBP12.6 co-elute at fractions 26 and 27 on the analytical sizing column (G2000SW) used in this experiment. […] Because this crude FKBP material also contains FKBP12.6, it can also be observed migrating slightly above FKBP12 in FIG. 4A.
To more carefully examine the requirements for FKBP12.6 complex formation with CaN, experiments were conducted using purified FKBP12.6.
The incubation buffer contained 20 mM Tris (pH 7.5), 100 mM NaCl, 6 mM MgCl2, 0.1 mM CaCl2, 0.1 mg/ml BSA, and 0.5 mM dithiothreitol. The incubation reaction was chromatographed on a Bio-Sil SEC400 HPLC column (Bio-Rad) at a flow rate of 1 ml/min and 1 min fractions were collected. The chromatography buffer was the same as the incubation buffer except that BSA was omitted. 30 μl of fractions 19-29 were subjected to electrophoresis on a 16% Novex Tris-Glycine gel and Western analysis was performed as described above.

[9] = partially purified FKBP12.6 (Step VI)

T1 sequence (P68107 whole entry): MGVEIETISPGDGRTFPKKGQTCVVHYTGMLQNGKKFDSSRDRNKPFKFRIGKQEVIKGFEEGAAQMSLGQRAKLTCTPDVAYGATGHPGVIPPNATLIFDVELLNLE
Chain of FKBP12 (P62942 whole entry, species assumed): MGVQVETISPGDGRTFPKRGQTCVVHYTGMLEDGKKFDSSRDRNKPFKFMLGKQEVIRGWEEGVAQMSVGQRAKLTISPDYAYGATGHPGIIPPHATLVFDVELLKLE

Molecule: C=CCC1C=C(C)CC(C)CC(OC)C2OC(O)(C(=O)C(=O)N3CCCCC3C(=O)OC(C(C)=CC3CCC(O)C(OC)C3)C(C)C(O)CC1=O)C(C)CC2OC (stereo not drawn) [FK-506, 17-allyl-1,14-dihydroxy-12-[2'-(4"-hydroxy-3"-methoxycyclohexyl)-1'-methylvinyl]-23,25-dimethoxy-13,19,21,27-tetramethyl-11,28-dioxa-4-azatricyclo-[22.3.1.0^4,9]octacos-18-ene-2,3,10,16-tetraone]
- neurological toxicities [1]: neurological toxicities, which include drowsiness, lethargy, tremors, and aggressiveness
- specific inhibition of FKBP12.6 PPIase activity (FKBP12.6 [2]; Example 4): specifically inhibited by FK-506
- inhibition of PPIase activity of FKBP12.6 (FKBP12.6 [2]; [9]): potent inhibitors

Molecule: [3H]CC([3H])C[C@@H]1/C=C(\C)C[C@H](C)C[C@H](OC)[C@H]2O[C@@](O)(C(=O)C(=O)N3CCCC[C@H]3C(=O)O[C@H](/C(C)=C/[C@@H]3CC[C@@H](O)[C@H](OC)C3)[C@H](C)[C@@H](O)CC1=O)[C@H](C)C[C@@H]2OC (stereo partly drawn) [[^3 H]dihydroFK-506]
- Kd (FKBP12): 400 pM
- Kd (FKBP12.6 [3]): 550 pM
- inhibition of IL-2 secretion (JURKAT cells; JURKAT cells, PMA and ionomycin): potent inhibitor
- potency relative to parent compound (times less potent) (JURKAT cells; inhibition of IL-2 secretion, parent FK-506): 5 times

Molecule: CO[C@H]1C[C@@H]2CC[C@@H](C)[C@@](O)(O2)C(=O)C(=O)N2CCCC[C@H]2C(=O)O[C@H]([C@H](C)C[C@@H]2CC[C@@H](O)[C@H](OC)C2)CC(=O)[C@H](C)/C=C(\C)[C@@H](O)[C@@H](OC)C(=O)[C@H](C)C[C@H](C)/C=C/C=C/C=C/1C [rapamycin]
- inhibition of PPIase activity of FKBP12.6 (FKBP12.6 [2]; [9]): potent inhibitors
- inhibition of PPIase activity relative to FK-506 (FKBP12.6 [2]; [9]): somewhat better inhibitor than FK-506

Molecule: FKBP12.6: homogeneous cytosolic binding protein for FK-506, 10-12 kilodaltons, from calf brain; partial sequence SEQ ID NO: 1
- stability to heating (Heat stability; 56° C. for 30 minutes): not stable upon heating; also recorded: unstable to heating
- effect of heat-treatment step (Heat stability; cytosolic extract from calf brain): complete loss of FKBP12.6
- IC50 (calcineurin [4]; in presence of FK-506, CaN, CaM, Ca^2+, Mg^2+, read-out: IC50 for inhibition of CaN): 16000 pM
- ability to block CaN phosphatase activity relative to FKBP12 (calcineurin [4]; in presence of FK-506, FIG. 5): almost equipotent to FKBP12
- FK-506 Binding (ng FK-506 bound/mg protein) [5]: 1.49 ng FK-506 bound/mg protein
- PPIase activity compared with FKBP12 ([6]; 25% purity of FKBP12.6 factored in): virtually equivalent to that of FKBP12
- PPIase activity ([6]; Example 4): low, but significant PPIase activity
- PPIase activity ([6]; material from step VI): did have PPIase activity
- PPIase activity ([6]; renatured material (Step VII)): did not have PPIase activity
- specific binding activity ([7]; FKBP12.6 characteristic, summary): about 4.8 micrograms FK-506 per mg FKBP12.6 protein
- FK-506 Binding (ng FK-506 bound/mg protein) ([7]; Step III. TSK-125 HPLC): 4.23 ng FK-506 bound/mg protein
- FK-506 Binding (ng FK-506 bound/mg protein) ([7]; Step IV. CM-3SW HPLC): 13.3 ng FK-506 bound/mg protein
- FK-506 Binding (ng FK-506 bound/mg protein) ([7]; Step V. Phenyl-5PW HPLC): 52.85 ng FK-506 bound/mg protein
- FK-506 Binding (ng FK-506 bound/mg protein) ([7]; Step VI. G2000SW HPLC, about 25% pure): 1278.3 ng FK-506 bound/mg protein
- FK-506 Binding (ng FK-506 bound/mg protein) ([7]; Step VII. FK-506 Affinity): 4874.0 ng FK-506 bound/mg protein
- theoretical specific binding activity ([7]; assuming mass of 12.6 kDa and 1 mole FK-506 per mole protein): 64 mg of [^3 H]dihydroFK-506 per
- specific binding activity ([7]; purified FKBP12.6): 4.8 μg of [^3 H]dihydroFK-506 per mg of protein
- retention of binding to FK-506 ([7]; renatured material): retains binding to FK-506
- complex formation with CaN (calcineurin [8]; partially purified FKBPs, CaM, Mg^2+ and FK-506): Most of the FKBP12.6 is shifted to a high molecular weight complex
- complex formation with CaN (calcineurin [8]; purified FKBP12.6, CaM, Mg^2+ and FK-506): all of the immunoreactive FKBP12.6 is shifted to fractions (20-22)
- complex formation with CaN (calcineurin [8]; purified FKBP12.6, CaM, Mg^2+, without FK-506): continues to elute at fractions 26 and 27
